IC50 data for 27 molecules are collected here from patent US20250206729A1, “DUAL RAF AND TUBULIN INHIBITORS AND METHODS OF USE THEREOF” (Deciphera Pharmaceuticals, LLC, priority 2023, published 2025).

One assay relates to MiaPaca-2 cells. The experiment in a line: MiaPaca-2 cell proliferation assay. The settings on record: Homo sapiens, MIA PaCa-2; 67-72 h incubation, resazurin; read-out: MiaPaca-2 (inhibition of cell proliferation, IC50). The class given is cell-based. (Alamar Blue is a resazurin reagent that responds to reducing activity.)
Assay [1] has as its target T1, C-Raf kinase (SEQ ID NO: 2) (Homo sapiens, UniProt P04049, Y340D/Y341D).
T1 construct: C-Raf residues 306-end; Y340D, Y341D with N-; GST (N); purchased Sigma
Nature of the assay: Biochemical assay for C-Raf (coupled pyruvate kinase/lactate dehydrogenase). The settings on record: 1 mM ATP; read-out: CRAF (inhibition of biochemical activity, IC50).

The test system of another assay is Pa16c cells. The experiment in a line: Pa16c cell proliferation assay. The class given is cell-based. The settings on record: 67 to 72 h incubation, resazurin; read-out: Pa16c (inhibition of cell proliferation, IC50).
Another assay concerns HCT-116 cells. The experiment in a line: HCT-116 cell proliferation assay. In kind it is cell-based. The note with it: Homo sapiens, HCT-116; 67 to 72 h incubation, resazurin; read-out: HCT-116 (inhibition of cell proliferation, IC50).
For assay [2], the target named is T2, B-Raf kinase (SEQ ID NO: 1) (Homo sapiens, UniProt P15056).
T2 construct: GST (N); purchased Sigma
The experiment in a line: Biochemical assay for B-Raf (coupled pyruvate kinase/lactate dehydrogenase). The settings on record: 1 mM ATP; read-out: BRAF (inhibition of biochemical activity, IC50).

The subject of the next assay is HPAF-II cells. The experiment in a line: HPAF-II cell proliferation assay. The class given is cell-based. The settings on record: Homo sapiens, HPAF-II; 115 to 120 h incubation, resazurin; read-out: HPAF-II (inhibition of cell proliferation, IC50).

pIC50: −log10 of the molar value.

T1 sequence (P04049 307-648 Y340D/Y341D): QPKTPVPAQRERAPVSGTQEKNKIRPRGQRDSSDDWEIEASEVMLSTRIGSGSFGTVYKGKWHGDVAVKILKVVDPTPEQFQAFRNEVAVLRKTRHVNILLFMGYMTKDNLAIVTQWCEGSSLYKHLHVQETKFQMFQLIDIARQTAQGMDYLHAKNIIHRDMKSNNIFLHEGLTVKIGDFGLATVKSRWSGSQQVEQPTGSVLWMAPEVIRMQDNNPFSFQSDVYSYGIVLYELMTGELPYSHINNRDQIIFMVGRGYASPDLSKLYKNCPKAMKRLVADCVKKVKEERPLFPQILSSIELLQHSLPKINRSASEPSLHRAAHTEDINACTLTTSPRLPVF
T2 sequence (P15056 416-766): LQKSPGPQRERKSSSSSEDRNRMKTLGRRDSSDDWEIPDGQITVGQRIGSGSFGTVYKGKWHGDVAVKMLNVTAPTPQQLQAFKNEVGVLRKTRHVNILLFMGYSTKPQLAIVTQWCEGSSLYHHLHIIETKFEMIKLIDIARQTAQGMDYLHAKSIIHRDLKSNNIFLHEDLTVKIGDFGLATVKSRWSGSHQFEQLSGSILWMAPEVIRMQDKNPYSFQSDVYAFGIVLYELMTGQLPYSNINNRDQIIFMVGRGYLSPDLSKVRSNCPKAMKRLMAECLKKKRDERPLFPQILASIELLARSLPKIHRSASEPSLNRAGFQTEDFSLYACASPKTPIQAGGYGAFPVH

Regarding `Cc1ccc(NC(=O)c2cc(C(C)C)cnn2)cc1-c1ccnc(N2CCOCC2)c1` [Example 58], the pIC50 with MiaPaca-2 cells is 6.00 to 6.30; in assay [1], above 7.00; in the assay on Pa16c cells, 6.30 to 7.00; in the assay with HCT-116 cells, 6.30 to 7.00; in assay [2], 6.30 to 7.00; with HPAF-II cells, 6.30 to 7.00.

For `Cc1ccc(NC(=O)c2cc(C(F)(F)F)cnn2)cc1-c1cncc(N2CCOCC2)n1` [Example 59], the pIC50 with MiaPaca-2 cells was 6.00 to 6.30; in assay [1] it was 5.00 to 6.00; in the assay on Pa16c cells it was 6.30 to 7.00; with HCT-116 cells, 6.00 to 6.30; in assay [2], 5.00 to 6.00; in the assay with HPAF-II cells, 6.00 to 6.30.

In the case of `CNc1cc(-c2cc(NC(=O)c3cc(C4CC4)cnn3)ccc2C)cc(N2CCOCC2)n1` [Example 60], the pIC50 was above 7.00 in the assay with MiaPaca-2 cells; above 7.00 in assay [1]; above 7.00 in the assay on Pa16c cells; above 7.00 with HCT-116 cells; 6.30 to 7.00 in assay [2]; above 7.00 with HPAF-II cells.

For `CNc1cc(-c2cc(NC(=O)c3cc(C(F)(F)F)cnn3)ccc2C)cc(N2CCOCC2)n1` [Example 61], the pIC50 (in the assay with MiaPaca-2 cells; in assay [1]; with Pa16c cells; in the assay with HCT-116 cells; in assay [2]; in the assay on HPAF-II cells) was above 7.00 in each case.

Take `Cc1ccc(NC(=O)c2cncc(C3CC3)n2)cc1-c1cc(N[C@H](C)CO)nc(N2CCOCC2)c1` [Example 62]: the pIC50 in the assay with MiaPaca-2 cells was 5.00 to 6.00; in assay [1], above 7.00; in the assay with Pa16c cells, 5.00 to 6.00; in the assay on HCT-116 cells, 5.00 to 6.00; in assay [2], 6.30 to 7.00; with HPAF-II cells it was 5.00 to 6.00.

Turning to `Cc1ccc(NC(=O)c2cc(C(C)(F)F)cnn2)cc1-c1cc(OCCO)nc(N2CCOCC2)c1` [Example 63], the pIC50 (with MiaPaca-2 cells; in assay [1]; in the assay on Pa16c cells; with HCT-116 cells; in assay [2]; in the assay with HPAF-II cells) was above 7.00 throughout.

For the molecule `Cc1ccc(NC(=O)c2cc(C(C)(F)F)cnn2)cc1-c1cc(NCCO)nc(N2CCOCC2)c1` [Example 64], the pIC50 (in the assay with MiaPaca-2 cells; in assay [1]; with Pa16c cells; in the assay with HCT-116 cells; in assay [2]; in the assay on HPAF-II cells) was above 7.00 in each case.

Consider `Cc1ccc(NC(=O)c2cc(Cl)cnn2)cc1-c1cncc(N2CCOCC2)n1` [Example 65], for which the pIC50 (in the assay on MiaPaca-2 cells; in assay [1]; in the assay on Pa16c cells; with HCT-116 cells; in assay [2]; in the assay with HPAF-II cells) was 5.00 to 6.00 each time.

As to `Cc1ccc(NC(=O)c2cc(C(C)(F)F)cnn2)cc1-c1cc(N[C@H](C)CO)nc(N2CCOCC2)c1` [Example 66], the pIC50 (in the assay on MiaPaca-2 cells; in assay [1]; with Pa16c cells; in the assay with HCT-116 cells; in assay [2]; with HPAF-II cells) was above 7.00 in each case.

On to `Cc1ccc(NC(=O)c2cnc(N)nc2)cc1-c1cc(N[C@H](C)CO)nc(N2CCOCC2)c1` [Example 68], for which the pIC50 is 5.00 to 6.00 with MiaPaca-2 cells; 6.00 to 6.30 in assay [1]; 5.00 to 6.00 in the assay on Pa16c cells; 5.00 to 6.00 in the assay with HCT-116 cells; 5.00 to 6.00 in assay [2]; 5.00 to 6.00 in the assay on HPAF-II cells.

Take `Cc1ccc(NC(=O)c2cnc(Br)nc2)cc1-c1cc(N[C@H](C)CO)nc(N2CCOCC2)c1` [Example 69]: the pIC50 (in the assay on MiaPaca-2 cells; in assay [1]; in the assay on Pa16c cells; in the assay with HCT-116 cells; in assay [2]; in the assay with HPAF-II cells) was 5.00 to 6.00 throughout.

In the case of `Cc1ccc(NC(=O)c2cc(C3CC3)cnn2)cc1-c1cc(N[C@H](C)CO)nc(N2CCOCC2)c1` [Example 70], the pIC50 (in the assay with MiaPaca-2 cells; in assay [1]; in the assay on Pa16c cells; with HCT-116 cells; in assay [2]; with HPAF-II cells) was above 7.00 throughout.

In the case of `Cc1ccc(NC(=O)c2cc(Cl)cnn2)cc1-c1ccnc(N2CCOCC2)n1` [Example 71], the pIC50 is 6.30 to 7.00 in the assay on MiaPaca-2 cells; 5.00 to 6.00 in assay [1]; 5.00 to 6.00 in the assay on Pa16c cells; 5.00 to 6.00 in the assay with HCT-116 cells; 5.00 to 6.00 in assay [2]; 5.00 to 6.00 in the assay with HPAF-II cells.

Consider `Cc1ccc(NC(=O)c2cc(C(C)C)cnn2)cc1-c1cc(N2CCOCC2)ncn1` [Example 72], for which the pIC50 in the assay on MiaPaca-2 cells was 5.00 to 6.00; in assay [1], 6.30 to 7.00; with Pa16c cells, 5.00 to 6.00; in the assay on HCT-116 cells, 5.00 to 6.00; in assay [2] it was 6.30 to 7.00; with HPAF-II cells it was 5.00 to 6.00.

For `Cc1ccc(NC(=O)c2cc(C(C)C)cnn2)cc1-c1ccnc(N2CCOCC2)n1` [Example 73], the pIC50 in the assay with MiaPaca-2 cells was 5.00 to 6.00; in assay [1], 6.30 to 7.00; in the assay with Pa16c cells, 5.00 to 6.00; in the assay on HCT-116 cells it was 6.00 to 6.30; in assay [2], 5.00 to 6.00; in the assay with HPAF-II cells, 5.00 to 6.00.

Turning to `Cc1ccc(NC(=O)c2cc(Cl)cnn2)cc1-c1cc(N2CCOCC2)ncn1` [Example 74], the pIC50 (with MiaPaca-2 cells; in assay [1]; with Pa16c cells; in the assay on HCT-116 cells; in assay [2]; in the assay with HPAF-II cells) was 5.00 to 6.00 throughout.

In the case of `Cc1ccc(NC(=O)c2cc(Cl)cnn2)cc1-c1cccc(N2CCOCC2)c1` [Example 75], the pIC50 (in the assay with MiaPaca-2 cells; in assay [1]; in the assay on Pa16c cells; with HCT-116 cells; in assay [2]; with HPAF-II cells) was 5.00 to 6.00 each time.

For `Cc1ccc(NC(=O)c2cc(C(C)C)cnn2)cc1-c1cccc(N2CCOCC2)c1` [Example 76], the pIC50 in the assay on MiaPaca-2 cells is 5.00 to 6.00; in assay [1], above 7.00; with Pa16c cells, 5.00 to 6.00; with HCT-116 cells, 5.00 to 6.00; in assay [2], 6.30 to 7.00; in the assay with HPAF-II cells, 5.00 to 6.00.

Turning to `Cc1ccc(NC(=O)c2cc(Cl)cnn2)cc1-c1cncc(N2CCOCC2)c1` [Example 77], the pIC50 (with MiaPaca-2 cells; in assay [1]; with Pa16c cells; with HCT-116 cells; in assay [2]; in the assay with HPAF-II cells) was 5.00 to 6.00 throughout.

With `Cc1ccc(NC(=O)c2cc(Br)cnn2)cc1-c1cc(OCCO)nc(N2CCOCC2)c1` [Example 78], the pIC50 in the assay on MiaPaca-2 cells was 6.00 to 6.30; in assay [1] it was above 7.00; in the assay on Pa16c cells, 5.00 to 6.00; in the assay on HCT-116 cells, 6.00 to 6.30; in assay [2], 6.30 to 7.00; in the assay with HPAF-II cells, 5.00 to 6.00.

Consider `Cc1ccc(NC(=O)c2cc(C(C)C)cnn2)cc1-c1cncc(N2CCOCC2)c1` [Example 79], for which the pIC50 with MiaPaca-2 cells is 5.00 to 6.00; in assay [1], above 7.00; in the assay with Pa16c cells, 5.00 to 6.00; in the assay on HCT-116 cells, 5.00 to 6.00; in assay [2], 6.30 to 7.00; with HPAF-II cells, 5.00 to 6.00.

Regarding `Cc1ccc(NC(=O)c2cc(C(N)=O)cnn2)cc1-c1cc(N[C@H](C)CO)nc(N2CCOCC2)c1` [Example 80], the pIC50 is 6.30 to 7.00 with MiaPaca-2 cells; 6.00 to 6.30 in assay [1]; 5.00 to 6.00 in the assay with Pa16c cells; 6.00 to 6.30 with HCT-116 cells; 5.00 to 6.00 in assay [2]; 5.00 to 6.00 with HPAF-II cells.

Turning to `Cc1ccc(NC(=O)c2cc(C#N)cnn2)cc1-c1cc(N[C@H](C)CO)nc(N2CCOCC2)c1` [Example 81], the pIC50 in the assay on MiaPaca-2 cells is above 7.00; in assay [1] it was 6.30 to 7.00; with Pa16c cells, above 7.00; in the assay with HCT-116 cells, above 7.00; in assay [2], 6.00 to 6.30; with HPAF-II cells, above 7.00.

Regarding `Cc1ccc(NC(=O)c2cc(Br)cnn2)cc1-c1cc(N[C@H](C)CO)nc(N2CCOCC2)c1` [Example 82], the pIC50 was 6.30 to 7.00 in the assay with MiaPaca-2 cells; above 7.00 in assay [1]; 5.00 to 6.00 with Pa16c cells; 6.30 to 7.00 in the assay on HCT-116 cells; 6.30 to 7.00 in assay [2]; 5.00 to 6.00 in the assay with HPAF-II cells.

Regarding `Cc1ccc(NC(=O)c2cc(C3CC3)cnn2)cc1-c1ccnc(N2C[C@@H](C)O[C@@H](C)C2)c1` [Example 85], the pIC50 (in the assay on MiaPaca-2 cells; in assay [1]; in the assay with Pa16c cells; in the assay with HCT-116 cells; in assay [2]; with HPAF-II cells) was 5.00 to 6.00 throughout.

With `Cc1ccc(NC(=O)c2cc(C(F)(F)F)cnn2)cc1-c1ccnc(N2C[C@H]3C[C@@H]2CO3)c1` [Example 86], the pIC50 in the assay with MiaPaca-2 cells was above 7.00; in assay [1], 5.00 to 6.00; in the assay on Pa16c cells it was above 7.00; in the assay with HCT-116 cells it was above 7.00; in assay [2], 5.00 to 6.00; in the assay with HPAF-II cells, above 7.00.

For the molecule `Cc1ccc(NC(=O)c2cc(C(F)(F)F)cnn2)cc1-c1ccnc(N2C[C@@H]3C[C@H]2CO3)c1` [Example 87], the pIC50 in the assay with MiaPaca-2 cells is above 7.00; in assay [1], 6.30 to 7.00; in the assay on Pa16c cells, above 7.00; with HCT-116 cells, above 7.00; in assay [2], 6.30 to 7.00; in the assay on HPAF-II cells it was above 7.00.
